This assay relates to P388 leukemia ip, CD2F1 mice, survival T/C. Kind of assay: NCI In Vivo Anticancer Drug Screen. Data for tumor model P388 Leukemia (intraperitoneal) in CD2F1 (CDF1) mice. The conditions noted are these: endpoint: median survival time, higher = longer survival. A digest of the protocol:
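Mice carrying the transplanted tumor received test compound or vehicle. Survival was recorded in each group, and the value is the treated-group measurement divided by that of the vehicle-treated control group.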

[1] abbreviates: dose: 12.5 mg/kg/injection, schedule: Q01DX009 (ip), vehicle: Klucel (hydroxypropylcellulose) (HPC).
[2] abbreviates: dose: 25.0 mg/kg/injection, schedule: Q01DX009 (ip), vehicle: Klucel (hydroxypropylcellulose) (HPC).
The mark [3] stands for this setting: dose: 50.0 mg/kg/injection, schedule: Q01DX009 (ip), vehicle: Klucel (hydroxypropylcellulose) (HPC).
Setting [4] is: dose: 100.0 mg/kg/injection, schedule: Q01DX009 (ip), vehicle: Klucel (hydroxypropylcellulose) (HPC).
Setting [5] is: dose: 200.0 mg/kg/injection, schedule: Q01DX009 (ip), vehicle: Klucel (hydroxypropylcellulose) (HPC).
Setting [6] is: dose: 50.0 mg/kg/injection, schedule: Q01DX005 (ip), vehicle: Klucel + Tween-80.
Where [7] appears, read: dose: 100.0 mg/kg/injection, schedule: Q01DX005 (ip), vehicle: Klucel + Tween-80.
Setting [8] is: dose: 200.0 mg/kg/injection, schedule: Q01DX005 (ip), vehicle: Klucel + Tween-80.
Where [9] appears, read: dose: 50.0 mg/kg/injection, schedule: Q01DX005 (ip), vehicle: saline.
[10] abbreviates: dose: 100.0 mg/kg/injection, schedule: Q01DX005 (ip), vehicle: saline.
The mark [11] stands for this setting: dose: 200.0 mg/kg/injection, schedule: Q01DX005 (ip), vehicle: saline with Tween-80.
Where [12] appears, read: dose: 60.0 mg/kg/injection, schedule: Q01DX005 (ip), vehicle: saline with Tween-80.
Setting [13] is: dose: 120.0 mg/kg/injection, schedule: Q01DX005 (ip), vehicle: saline with Tween-80.
Setting [14] is: dose: 240.0 mg/kg/injection, schedule: Q01DX005 (ip), vehicle: saline with Tween-80.

Here are results for 21 compounds from PubChem BioAssay AID330 (DTP/NCI, 2004).

Several values for one entry are separate records, joined by “and”; a condition that tells them apart may be missing. Equal values may be shown once. Inconclusive results and toxic doses are left out.

As to `CC(=O)NS(=O)(=O)c1ccc(N)cc1`, the T/C was 109 % of control (dose: 100.0 mg/kg/injection, schedule: Q01DX009 (ip), vehicle: saline sonified); 104 % of control (dose: 132.0 mg/kg/injection, schedule: Q01DX009 (ip), vehicle: saline with Tween-80); 104 % of control (dose: 200.0 mg/kg/injection, schedule: Q01DX009 (ip), vehicle: saline with Tween-80); 113 % of control (dose: 300.0 mg/kg/injection, schedule: Q01DX009 (ip), vehicle: saline with Tween-80); 104 % of control (dose: 400.0 mg/kg/injection, schedule: Q01DX009 (ip), vehicle: saline sonified).

Consider `COc1ccc2c(oc(=O)c3c(Cl)nc(C)c(C)c32)c1OC`, for which the T/C by setting is: under setting [1], 98 % of control; (dose: 12.5 mg/kg/injection, schedule: Q04DX003 (ip), vehicle: Klucel (hydroxypropylcellulose) (HPC)) 100 % of control; under setting [2], 98 % of control; (dose: 25.0 mg/kg/injection, schedule: Q04DX003 (ip), vehicle: Klucel (hydroxypropylcellulose) (HPC)) 102 % of control; under setting [3], 98 % of control; (dose: 50.0 mg/kg/injection, schedule: Q04DX003 (ip), vehicle: Klucel (hydroxypropylcellulose) (HPC)) 94 % of control. For the same compound, the T/C is, setting by setting: under setting [4], 97 % of control; (dose: 100.0 mg/kg/injection, schedule: Q04DX003 (ip), vehicle: Klucel (hydroxypropylcellulose) (HPC)) 90 % of control; under setting [5], 97 % of control; (dose: 200.0 mg/kg/injection, schedule: Q04DX003 (ip), vehicle: Klucel (hydroxypropylcellulose) (HPC)) 90 % of control.

Consider `CCCCCCCC(=O)Nc1nnc(SCCCCCCCCCCSc2nnc(NC(=O)CCCCCCC)s2)s1`, for which the T/C is 90 % of control under setting [6], 87 % of control under setting [7] and 90 % of control under setting [8].

Turning to `CCCCCN(CCCCC)CC(C)(O)CNc1cc(OC)cc2cccnc12` (centres undefined), the T/C under setting [9] was 95 % of control and the T/C under setting [10] was 87 % of control.

As to `CC(=O)Oc1n[nH]c(=O)n1-c1ccccc1`, the T/C was 107 % of control under setting [6], 107 % of control under setting [7] and 98 % of control under setting [8].

For `[N-]=[N+]=Nc1ccc(NCCCCCC(=O)ON2C(=O)CCC2=O)c([N+](=O)[O-])c1`, the T/C was 106 % of control (dose: 50.0 mg/kg/injection, schedule: Q01DX005 (ip), vehicle: saline with Tween-80); 106 % of control (dose: 100.0 mg/kg/injection, schedule: Q01DX005 (ip), vehicle: saline with Tween-80); 106 % of control under setting [11].

For `O=C(O)CCCC/C=C/CCCCCCC1C=CCC1` (centres undefined), the T/C reads like this: (dose: 100.0 mg/kg/injection, schedule: Q04DX003 (ip), vehicle: saline) 93 % of control; (dose: 200.0 mg/kg/injection, schedule: Q04DX003 (ip), vehicle: saline) 98 % of control; (dose: 400.0 mg/kg/injection, schedule: Q04DX003 (ip), vehicle: saline) 91 % of control.

With `O=C1COc2ccccc2OCCOCCOc2ccccc2OC1`, the T/C runs as follows: under setting [12], 97 % of control; under setting [13], 98 % of control; under setting [14], 96 % of control.

In the case of `COc1ccc2c(c1)[nH]c1c(C)c3ccncc3c(C)c12`, the T/C was 95 % of control (dose: 18.75 mg/kg/injection, schedule: Q04DX002 (ip), vehicle: Klucel (hydroxypropylcellulose) (HPC)); 92 % of control (dose: 37.5 mg/kg/injection, schedule: Q04DX002 (ip), vehicle: Klucel (hydroxypropylcellulose) (HPC)); 90 % of control (dose: 75.0 mg/kg/injection, schedule: Q04DX002 (ip), vehicle: Klucel (hydroxypropylcellulose) (HPC)); 100 % of control (dose: 150.0 mg/kg/injection, schedule: Q04DX002 (ip), vehicle: Klucel (hydroxypropylcellulose) (HPC)).

As to `CN(C)CCCN1CCC2(CCSCC2)C1`, the T/C is, setting by setting: under setting [9], 102 % of control; under setting [10], 99 % of control; (dose: 200.0 mg/kg/injection, schedule: Q01DX005 (ip), vehicle: saline) 91 % of control.

On to `COCC[P+](c1ccccc1)(c1ccccc1)c1ccccc1`, for which the T/C runs as follows: (dose: 1.56 mg/kg/injection, schedule: Q01DX009 (ip), vehicle: water) 103 % of control; (dose: 3.13 mg/kg/injection, schedule: Q01DX009 (ip), vehicle: water) 99 % of control and 109 % of control; (dose: 6.25 mg/kg/injection, schedule: Q01DX009 (ip), vehicle: water) 112 % of control and 123 % of control; (dose: 12.5 mg/kg/injection, schedule: Q01DX009 (ip), vehicle: water) 123 % of control; (dose: 25.0 mg/kg/injection, schedule: Q01DX009 (ip), vehicle: water) 105 % of control and 119 % of control; (dose: 50.0 mg/kg/injection, schedule: Q01DX009 (ip), vehicle: water) 116 % of control.

On to `CC(Cc1cccc2ccccc12)C(N)=O` (centres undefined), for which the T/C is 100 % of control (dose: 50.0 mg/kg/injection, schedule: Q01DX005 (ip), vehicle: Klucel (hydroxypropylcellulose) (HPC)); 99 % of control (dose: 100.0 mg/kg/injection, schedule: Q01DX005 (ip), vehicle: Klucel (hydroxypropylcellulose) (HPC)); 99 % of control (dose: 200.0 mg/kg/injection, schedule: Q01DX005 (ip), vehicle: Klucel (hydroxypropylcellulose) (HPC)).

With `Nc1cc(=O)cc2nn[nH]n12`, the T/C runs as follows: under setting [3], 102 % of control; under setting [4], 108 % of control; under setting [5], 101 % of control.

For the compound `O=C1c2ccccc2OCC1/C=N/O` (centres undefined), the T/C is 95 % of control under setting [12], 103 % of control under setting [13] and 101 % of control under setting [14].

In the case of `CC(C)(C)n1nc(C2CC2)cc1NC(=O)Nc1ccc(Cl)cc1`, the T/C under setting [12] was 93 % of control, the T/C under setting [13] is 94 % of control and the T/C under setting [14] is 91 % of control.

For `CC(=O)N(C)O`, the T/C by setting is: (dose: 50.0 mg/kg/injection, schedule: Q01DX009 (ip), vehicle: saline with Tween-80) 100 % of control and 104 % of control; (dose: 100.0 mg/kg/injection, schedule: Q01DX009 (ip), vehicle: saline with Tween-80) 105 % of control and 110 % of control; under setting [11], 121 % of control; (dose: 400.0 mg/kg/injection, schedule: Q01DX009 (ip), vehicle: saline with Tween-80) 160 % of control.

Turning to `ClCc1cnc[nH]1`, the T/C by setting is: (dose: 50.0 mg/kg/injection, schedule: Q01DX009 (ip), vehicle: saline) 116 % of control; (dose: 100.0 mg/kg/injection, schedule: Q01DX009 (ip), vehicle: saline) 111 % of control.

In the case of `O=C(NC12CC3CC(CC(C3)C1)C2)OCCN1CCN(CCCN2c3ccccc3Sc3ccc(C(F)(F)F)cc32)CC1`, the T/C runs as follows: (dose: 25.0 mg/kg/injection, schedule: Q04DX002 (ip), vehicle: saline with Tween-80) 97 % of control; (dose: 50.0 mg/kg/injection, schedule: Q04DX002 (ip), vehicle: saline with Tween-80) 101 % of control; (dose: 100.0 mg/kg/injection, schedule: Q04DX002 (ip), vehicle: saline with Tween-80) 104 % of control and 113 % of control.

As to `CCOCCOC(=O)c1nc2c(N)nc(-c3ccccc3)nc2nc1N`, the T/C was 98 % of control (dose: 15.0 mg/kg/injection, schedule: Q01DX009 (ip), vehicle: saline with Tween-80); 98 % of control (dose: 30.0 mg/kg/injection, schedule: Q01DX009 (ip), vehicle: saline with Tween-80); 91 % of control (dose: 60.0 mg/kg/injection, schedule: Q01DX009 (ip), vehicle: saline with Tween-80).

Take `CC(=O)O.CC(=O)O.CC(=O)O.CC(=O)O.O=C(O)C1C[N-]CC(C(=O)O)C1.O=C(O)C1C[N-]CC(C(=O)O)C1.[Cu+].[Cu+]` (centres undefined): the T/C was 95 % of control (dose: 3.12 mg/kg/injection, schedule: Q01DX005 (ip), vehicle: suspension in saline); 99 % of control (dose: 6.25 mg/kg/injection, schedule: Q01DX005 (ip), vehicle: suspension in saline); 94 % of control (dose: 12.5 mg/kg/injection, schedule: Q01DX005 (ip), vehicle: suspension in saline).

Take `CC(=O)NC(CCc1ccc(Cl)c(Cl)c1)c1cccc(O)c(=O)c1` (centres undefined): the T/C under setting [1] was 105 % of control and 110 % of control; the T/C under setting [2] was 106 % of control and 122 % of control.
